From patent publication US20230276803A1, “A PESTICIDALLY ACTIVE MIXTURE COMPRISING THIETANYLOXY COMPOUND, OXIDES OR SALTS THEREOF” (PI INDUSTRIES LTD., priority 2020, published 2023)

Key:
Format in all cases: in vivo
[1] = system: Parastagonospora nodorum/Septoria nodorum/Stagnospora nodorum; experiment: Preventive glasshouse test against Septoria nodorum in wheat (Example J); details: 500 ppm, preventive spray
Text: (§1) In which E represents the expected percentage of inhibition of the pests for the combination of two insecticides or one insecticide and one fungicide at defined doses (for example equal to x and y respectively), x is the percentage of inhibition observed for the pest/disease by the compound (1) at a given dose (equal to x), y is the percentage of inhibition observed for the pest/disease by the compound (2) or (3) at a defined dose (equal to y). When the percentage of inhibition observed for the combination is greater than E, there is a synergistic effect.
(§2) The single compounds or respective compound combinations were dissolved in 2% dimethyl sulfoxide/acetone and then mixed with water containing emulsifier to a calibrated spray volume of 50 mL. The test solutions were poured into spray bottles for further applications.
[…] One day after treatment, the plants were inoculated with a spore suspension containing 2.8×10^6 Stagnospora nodorum inoculum.
The inoculated plants were then kept in a greenhouse chamber at 22-25° C. temperature and 90-100% relative humidity for disease expression.
(§3) A visual assessment of the performance of the single compounds or compound combinations was carried out by rating the disease severity (0-100% scale) on treated plants 3, 7, 10 and 15 days after application. Efficacy (% control) of the single compounds and mixtures was calculated by comparing the disease rating in the treatment with the one of the untreated control. The compounds were also assessed for their plant compatibility by recording symptoms like necrosis, chlorosis and stunting. The results have been described for the compound of formula (I-1) in Table J.

Phakopsora pachyrhizi = experiment: Preventive glasshouse test against Phakopsora pachyrhizi in soybean (Example H); details: preventive spray
Text: as §1
The single compounds or the respective compound combinations were dissolved in 2% dimethyl sulfoxide/acetone and then mixed with water containing an emulsifier to a calibrated spray volume of 50 ml. The test solutions were poured into spray bottles for further applications.
To test the preventive activity of compounds, healthy young Soybean plants, raised in the greenhouse, were sprayed with the active compound preparation at the stated application rates inside the spray cabinets using hollow cone nozzles. One day after treatment, the plants were inoculated with a suspension containing 2×10^5 Phakopsora pachyrhizi conidia. The inoculated plants were then kept in a greenhouse chamber at a temperature of 22-24° C. and 80-90% relative humidity for disease expression.
A visual assessment of the performance of the single compounds and respective compound combinations was carried out by rating the disease severity (0-100% scale) on treated plants 3, 7, 10 and 15 days after application. Efficacy (% control) of the compounds was calculated by comparing the disease rating in the treatment with the one of the untreated control. The compounds were also assessed for their plant compatibility by recording symptoms like necrosis, chlorosis and stunting. The results have been described for the compound of formula (I-1) in Table H.

Spodoptera litura = experiment: Diet incorporation method against Spodoptera litura (Example B); details: 96 h
Text: as §1
The diet incorporation method was used, in which semi-synthetic diet was incorporated into the test solution consisting either of the single compound or respective compound combinations, when the temperature was approximately 50° C. in the bioassay containers, then stirred thoroughly for proper mixing and allowed to cool for 30 min. The solidified diet was cut into equal pieces, and then each piece was transferred into one cell of the bio-assay trays. A single starved third instar larva was released into each of these cells of the bio-assay trays and the tray was covered with a lid. The bio-assay trays were kept under laboratory conditions at a temperature of 25° C. and relative humidity of 70%. Observations on dead, moribund and live larvae were recorded 96 h after the release. Percent mortality was calculated by combining dead and moribund larvae and comparing the result with the one of the untreated control. The results are shown for the compound of formula (I-1) in Table B.

Alternaria solani = experiment: Preventive glasshouse test against Alternaria solani in tomato (Example G); details: preventive spray
Text: as §1, §2
To test the preventive activity, healthy young tomato plants, raised in the greenhouse, were sprayed with the active compound preparation at the stated application rates inside the spray cabinets using hollow cone nozzles. One day after treatment, the plants were inoculated with a spore suspension containing 0.24×10^6 Alternaria solani inoculum and 2% Malt. The inoculated plants were then kept in a greenhouse chamber at a temperature of 22-24° C. and 90-95% relative humidity for disease expression.
as §3, with “G.” for “J.”

Plutella xylostella = experiment: Leaf dip method (cabbage leaves), Bacillus thuringiensis mixture against Plutella xylostella (Example F); details: 0.1 ppm; 72 h
Text: as §1
The leaf dip method was used, wherein the required quantity of the compounds were weighed and dissolved in a test solution prepared in tubes. The tubes were put on a vortex at 2000 rpm for 90 min for proper mixing and then, for the single compounds, diluted with a 0.01% Triton-X solution, for the combinations, diluted with a 0.01% Triton-X solution containing formulated Bt, to get the desired test concentration. Cabbage leaves were dipped in the solution for 10 seconds, shade dried for 20 min and then transferred to single cells of bioassay trays. […] Observations on dead, moribund and live larvae were recorded 72 h after the release. Percent mortality was calculated by combining dead and moribund larvae and comparing the results to the one of the untreated control. […]

Erysiphe cichoracearum = experiment: Preventive glasshouse test against Erysiphe cichoracearum in cucumber (Example K); details: 500 ppm, preventive spray
Text: as §1
The single compounds or the respective compound combinations were dissolved in 2% dimethyl sulfoxide/acetone and then mixed with water containing emulsifier to a calibrated spray volume of 50 mL. The test solutions were poured into spray bottles for further applications. […]
A visual assessment of the performance of the compounds and the respective compound combinations was carried out by rating the disease severity (0-100% scale) on treated plants 3, 7, 10 and 15 days after application. Efficacy (% control) of the single compounds or compound combinations was calculated by comparing the disease rating in the treatment with the one of the untreated control. The compounds were also assessed for their plant compatibility by recording symptoms like necrosis, chlorosis and stunting. […]

## Cc1cc(Cl)cc(C(=O)NC(C)(C)C)c1NC(=O)c1cc(OC2CS(=O)(=O)C2)nn1-c1ncccc1Cl [Compound (I-1), N-(2-(tert-butylcarbamoyl)-4-chloro-6-methylphenyl)-1-(3-chloropyridin-2-yl)-3-((1,1-dioxidothietan-3-yl)oxy)-1H-pyrazole-5-carboxamide]
[1]
  Observed Efficacy (%): 37%
Phakopsora pachyrhizi; 100 ppm
  Observed Efficacy (%): 44%
Phakopsora pachyrhizi; 500 ppm
  Observed Efficacy (%): 47%
Spodoptera litura; read-out: Observed Efficacy (%), 0.32 ppm
  pest or weed control at 0.32 ppm: 37.5%
Spodoptera litura; read-out: Observed Efficacy (%), 1 ppm
  pest or weed control at 1 ppm: 25%
Alternaria solani; 100 ppm
  Observed Efficacy (%): 14%
Alternaria solani; 500 ppm
  Observed Efficacy (%): 16%
Plutella xylostella
  Observed Efficacy (%): 0%
Erysiphe cichoracearum
  Observed Efficacy (%): 28%
